Bridge positions count the residues as written; N and C are the ends. Square brackets hold non-standard residues; d marks the D form. 2Nal = N[C@@H](Cc1ccc2ccccc2c1)C(=O)O; Cit = NC(=O)NCCC[C@H](N)C(=O)O
Assay: Fraction bound to serum proteins
Type: in vitro ADME
Conditions: human

Substance: cyclo([2Nal]CY[Cit]KVCPKILQRCRRDSDCPGACICRGNGYCGSYR[Cit]CRG[dP]RR) (disulfide 2-38, 7-24, 14-26, 20-32) [MCo-CVX-5c]
- fraction unbound: < 0.01
